According to PMC11351612, “Heteronuclear Complexes with Promising Anticancer Activity against Colon Cancer” (Biomedicines, 2024):
Like-named read-outs stand apart in the source and are kept apart here.

Legend:
[1] = Distribution coefficient (logP7.4), n-octanol-water shake-flask; type: physicochemical; conditions: n-octanol / buffered saline pH 7.4, shake-flask
Procedure: Distribution coefficient (logP7.4). The n-octanol-water coefficients of the complexes were determined using a shake-flask method, as previously reported. Briefly, buffered-saline distilled water (100 mL, phosphate buffer [PO4^3−] = 10 mM, [NaCl] = 0.15 M, pH 7.4) and n-octanol (100 mL) were shaken together for 72 h to allow for saturation of both phases. Approximately 1 mg of the complexes was dissolved in 5 mL of the aqueous phase and 5 mL of the organic phase was added, mixing them for 10 min. The resulting emulsion was centrifuged to separate the phases. The concentration of the compounds in each phase was determined using UV-vis absorbance spectroscopy. The logP7.4 was defined as log{[compound(organic)]/[compound(aqueous)]}.

Caco-2/PD7 cells [2] = test: MTT cell proliferation assay, Caco-2/PD7; type: cell-based, human; conditions: MTT, 72 h; mean ± SE of at least three determinations
Procedure: (§1) Cell culture. Human colon cancer Caco-2 cells (PD7 and TC7 clones) were kindly provided by Dr. Edith Brot-Laroche (Université Pierre et Marie Curie-Paris 6, UMR S 872, Les Cordeliers, Lyon, France) and grown in Dulbecco’s Modified Eagles medium (DMEM) (Gibco Invitrogen, Paisley, UK) supplemented with 20% foetal bovine serum (FBS), 1% non-essential amino acids, 1% streptomycin (1000 μg/mL), 1% penicillin (1000 μg/mL), and 1% amphotericin (250 U/mL). Caco-2 cells were maintained at 37 °C in a humidified atmosphere at 5% CO2.
(§2) Cell proliferation assay. Cell proliferation was measured using the 3-(4,5-dimethyl-2-thiazoyl)-2,5-diphenyltetrazolium bromide (MTT) assay, as previously described. Caco-2/TC7 cells were seeded in a 96-well plate at a density of 4000 cells/well and grown for 24 h before being treated with each complex or DMSO (used as control). After 72 h of incubation with the complexes, 10 μL of MTT (5 mg/mL) were added and incubation was continued at 37 °C for 3 h. Inversion removed the medium and 100 μL of DMSO were added to each well. Absorbance at 560 nm, proportional to many living cells, was measured by spectrophotometry (SPECTROstar Nano, BMG LABTECH, Ortenberg, Germany) and converted into a percentage (%) of growth inhibition.
(§3) The antiproliferative effects of the mononuclear and heteropolinuclear complexes were tested on two different Caco-2 cancer cell lines (PD7 and […]). […] Caco-2 cells of both PD7 and TC7 clones were exposed to increasing concentrations of the assayed compounds through dose–response/cell viability analysis. The results in terms of the IC50 parameter (Table 4) were obtained by using the MTT protocol.

Caco-2/TC7 cells = test: MTT cell proliferation assay, Caco-2/TC7; type: cell-based, human; conditions: 72 h, mean ± SE of at least three determinations
Procedure: as §1, §2, §3

Caco-2/PD7 cells [3] = test: Annexin V/propidium iodide apoptosis assay, Caco-2/PD7; type: cell-based, human; conditions: Caco-2/PD7, annexin V/PI
Procedure: Study of cell death. After the appropriate incubation, cells were collected and stained with annexin V-FTIC, according to the manufacturer’s instructions. A negative control was prepared, containing unreacted cells to define the basal level of apoptotic and necrotic or dead cells. After incubation, the cells were transferred to flow-cytometry tubes and washed twice with temperate phosphate-buffered saline (PBS), suspended in 100 μL annexin V binding buffer (10 mM Hepes/NaOH, pH 7.4, 140 mM NaCl, 2.5 mM CaCl2), then 5 μL of annexin V-FITC, and 5 μL of PI was added to each 100 μL of cell suspension. After incubation for 15 min at room temperature in the dark, 400 μL of 1× annexin binding buffer was added and analysed by flow cytometry within one hour. The signal intensity was measured using a FACSARIA BD and analysed using FASCDIVA BD.
This inhibition of apoptosis produces a fast growth and proliferation of cancerous cells. The population of early and late apoptotic cells increased to 35% after treatment with complex 1 in comparison with the vehicle-treated cells (12%). […] Additionally, the effect observed after treating the cells with a dosage equal to the IC50 concentration is time-dependent. […]

[4] = test system: pIRES2-EGFP (5308 pb) plasmid DNA; parameters: method as in PMID 24732792, PMID 3707609; conditions: cited from earlier work
ct-DNA (calf thymus DNA) [5] = test system: ct-DNA (calf thymus DNA); parameters: method as in PMID 20926136; conditions: cited from earlier work
ct-DNA (calf thymus DNA) [6] = test: ct-DNA binding constant by UV-vis titration (Benesi-Hildebrand); conditions: complex 20 μM, ct-DNA 0-100 μM, Tris-HCl pH 7.2
Procedure: A ctDNA solution was prepared at 1 mg/mL in tris (tris(hydroxymethyl)aminomethane)/HCl (0.1 M, pH 7.2). Then, the purity of the ctDNA was checked, recording its spectra and calculating the absorption ratio between 260 and 280 nm. This experiment also provides the means to calculate the concentration of ctDNA using the Beer–Lambert formula, with the extinction coefficient of 6600 M^−1cm^−1. Every experiment was corrected with a baseline of the buffer and the corresponding concentration of dimethylsulfoxide. The addition of DNA solution was performed in both assay and reference cuvettes. Then, the binding constant was calculated using the modified Benesi–Hildebrand equation. Kb is the binding constant, εf, εa, and εb are the extinction coefficients for the free compound, the apparent coefficient (calculated as the ratio of the absorbance and the concentration of the compound in the experiment), and the compound–DNA complex, respectively. […]
The binding capabilities of [Cu{Au(Spy)(PTA)}2]PF6 (1) and [Au(Spy)(PTA)] were estimated towards […] by recording the electronic absorption spectra throughout their interaction. The absorbance measurements were performed by successive additions of a DNA stock solution (10, 20, 30, 40 up to 100 μL) which afforded the final concentration of ct-DNA (from 0 to 100 μM) while maintaining the concentration of the complexes (20 μM). […]

[7] = test system: pIRES2-EGFP (5308 pb) plasmid DNA; test: Gel electrophoretic mobility of plasmid DNA; type: binding; conditions: metal-to-base pair ratios 0.5, 1, 2; 0.8% agarose gel
Procedure: Adducts with pIRES2-EGFP (5308 pb) plasmid DNA (Catalog #6029-1) were prepared by adding the required volume of a freshly prepared solution of metal complexes in MilliQ water. The concentration of pIRES2-EGFP in the reaction mixture was 117 ng/µL, and the complexes’ concentration was varied to give different metal-to-base pair stoichiometries (0.5, 1 and 2). The mobility of the metal complex-treated pIRES2-EGFP samples was analysed by gel electrophoresis on a 0.8% (w/v) agarose gel (Boehringer-Mannheim, Mannheim, Germany) at […] at 25 °C in Tris-acetate/EDTA buffer. The gel was stained for 30 min in […] (w/v) ethidium bromide and the bands were visualised with a UVP gel scanner.
In addition, the interaction of both complexes with DNA was also studied by their ability to modify the electrophoretic mobility of the pIRES2-EGFP (5308 pb) plasmid DNA and compared to cisplatin (Figure 7).

A2780/S = test system: A2780/S; parameters: method as in PMID 19937669; conditions: ovarian cancer cell line; cited from earlier work
A2780/R = test system: A2780/R; parameters: method as in PMID 19937669; conditions: cisplatin-resistant ovarian cancer cell line; cited from earlier work
[8] = test system: differentiated Caco-2/PD7 cells; test: Cell viability of differentiated (enterocyte-like) Caco-2/PD7 cells; type: cell-based, human
Procedure: For cell viability studies of differentiated (enterocyte-like) cells, Caco-2/PD7 cells were seeded on 96-well plates at a density of 4 × 10^3 cells/well and incubated for approximately 10–15 days, changing the culture medium every 3 days, up to reaching confluence—the moment in which the cells were treated with the complexes at concentrations equal to their mean IC50 and 2 × IC50 values.
It is well known that the Caco-2 cell line undergoes spontaneous differentiation into enterocytic-like cells when it reaches confluency. As a result, these cells become polarised, expressing apical and basolateral surfaces with established tight junctions. This allowed for the evaluation of the cytotoxic impact of the complexes on differentiated cells (acting as noncarcinogenic) and a comparison with the viability of undifferentiated cells. Thus, the toxicity of the two heteronuclear compounds has been studied by cell viability experiments by treatment of Caco-2/PD7 cells after differentiation with complexes 1 and 2 at the corresponding concentrations equivalent to IC50 and 2 × IC50 values for 72 h. The results expressed as the % of cell viability observed after treatment with the complexes (or 100% for non-treated control cells) are summarised in Figure S16 (Supplementary Materials). […] However, the cell viability is around 90% even when the cells are treated with double the IC50 concentration.

CC(=O)OC[C@H]1O[C@@H]([S-])[C@H](OC(C)=O)[C@@H](OC(C)=O)[C@@H]1OC(C)=O.CCP(CC)CC.[Au+] [Auranofin, reference compound]
logP [1]: −2.53 | IC50 (Caco-2/PD7 cells [2]): 1800 ± 100 nM | IC50 (Caco-2/TC7 cells): 2100 ± 400 nM | Cell death stage after treatment (Caco-2/PD7 cells [3]): most cells being found in late-stage apoptosis and necrosis | Reactivity with DNA [4]: lack of reactivity

CC[n+]1c(-c2ccccc2)c2cc(N)ccc2c2ccc(N)cc21 [EB, ethidium bromide]
DNA binding constant Kb (ct-DNA (calf thymus DNA) [5]): 1.23(±0.07) × 10^5 M^−1

c1ccc([S][Au][P]23CN4CN(CN(C4)C2)C3)nc1 [[Au(Spy)(PTA)]]
IC50 (Caco-2/PD7 cells [2]): 2640 ± 250 nM | IC50 (Caco-2/TC7 cells): 2030 ± 20 nM | DNA binding constant Kb (ct-DNA (calf thymus DNA) [6]): 90600 M⁻¹ | Effect on electrophoretic mobility of plasmid DNA [7]: does not affect the mobility | IC50 (A2780/S): 9600 nM | IC50 (A2780/R): 8200 nM

N.N.[Cl][Pt][Cl] [cisplatin]
Effect on electrophoretic mobility of plasmid DNA [7]: greatly alters the electrophoretic mobility

[Zn{Au(PTA)(Spy)}2]Cl2 [compound 3]
Cell viability of differentiated Caco-2 cells at 2 × IC50 ([8]; differentiated Caco-2/PD7, concentration = 2 × IC50, 72 h): 93.18 ± 11.99% | Cell viability of differentiated Caco-2 cells at IC50 ([8]; differentiated Caco-2/PD7, concentration = IC50, 72 h): 98.87 ± 21.63%
